Assay results published in ChEMBL document CHEMBL5247643, “Discovery and Characterization of BAY-805, a Potent and Selective Inhibitor of Ubiquitin-Specific Protease USP21” (J Med Chem, 2023).
Activity calls are given as the source filed them. The rule behind the calls is not given here.

Tests used:
[1] = molecular target: Ubiquitin carboxyl-terminal hydrolase 9X (Homo sapiens) (UniProt Q93008); experiment: Inhibition of human USP9X (1551 to 1970 residues) expressed in Escherichia coli BL21 (DE3) using ubiquitin rhodamine 110 as substrate assessed as remaining enzyme activity at 10 to 50 uM by fluorometric assay; conditions: dose 10-50 µM
[2] = molecular target: T1, Ubiquitin carboxyl-terminal hydrolase 5 (Homo sapiens) (UniProt P45974); experiment: Inhibition of human USP5 (1 to 835 residues) expressed in Sf9 cells using ubiquitin rhodamine 110 as substrate assessed as remaining enzyme activity at 10 to 50 uM by fluorometric assay; conditions: dose 10-50 µM
T1 sequence (whole entry): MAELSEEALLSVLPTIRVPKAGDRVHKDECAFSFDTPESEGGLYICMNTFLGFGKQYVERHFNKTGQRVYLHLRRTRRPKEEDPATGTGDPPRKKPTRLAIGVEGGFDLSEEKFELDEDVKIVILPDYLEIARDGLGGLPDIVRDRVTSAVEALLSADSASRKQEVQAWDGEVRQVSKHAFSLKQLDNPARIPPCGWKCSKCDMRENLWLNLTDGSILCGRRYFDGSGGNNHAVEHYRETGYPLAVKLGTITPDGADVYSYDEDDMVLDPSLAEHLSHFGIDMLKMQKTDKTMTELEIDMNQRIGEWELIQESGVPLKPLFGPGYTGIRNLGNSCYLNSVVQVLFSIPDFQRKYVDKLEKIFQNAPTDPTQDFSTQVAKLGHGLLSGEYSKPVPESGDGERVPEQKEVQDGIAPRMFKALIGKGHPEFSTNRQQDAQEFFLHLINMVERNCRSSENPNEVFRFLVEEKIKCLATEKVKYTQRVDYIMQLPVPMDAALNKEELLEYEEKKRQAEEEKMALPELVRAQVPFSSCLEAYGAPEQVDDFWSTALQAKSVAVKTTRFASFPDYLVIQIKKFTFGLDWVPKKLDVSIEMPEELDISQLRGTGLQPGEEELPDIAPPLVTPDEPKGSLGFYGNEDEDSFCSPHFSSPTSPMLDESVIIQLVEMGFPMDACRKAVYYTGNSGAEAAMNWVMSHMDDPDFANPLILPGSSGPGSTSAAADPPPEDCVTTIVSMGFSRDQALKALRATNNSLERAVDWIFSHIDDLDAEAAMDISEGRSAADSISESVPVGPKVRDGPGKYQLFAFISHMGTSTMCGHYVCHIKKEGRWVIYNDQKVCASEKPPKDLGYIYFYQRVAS

[3] = molecular target: T2, Ubiquitin carboxyl-terminal hydrolase 2 (Homo sapiens) (UniProt O75604); experiment: Inhibition of human USP2 using ubiquitin rhodamine 110 as substrate at 10 to 50 uM by fluorometric assay; conditions: dose 10-50 µM
T2 sequence (whole entry): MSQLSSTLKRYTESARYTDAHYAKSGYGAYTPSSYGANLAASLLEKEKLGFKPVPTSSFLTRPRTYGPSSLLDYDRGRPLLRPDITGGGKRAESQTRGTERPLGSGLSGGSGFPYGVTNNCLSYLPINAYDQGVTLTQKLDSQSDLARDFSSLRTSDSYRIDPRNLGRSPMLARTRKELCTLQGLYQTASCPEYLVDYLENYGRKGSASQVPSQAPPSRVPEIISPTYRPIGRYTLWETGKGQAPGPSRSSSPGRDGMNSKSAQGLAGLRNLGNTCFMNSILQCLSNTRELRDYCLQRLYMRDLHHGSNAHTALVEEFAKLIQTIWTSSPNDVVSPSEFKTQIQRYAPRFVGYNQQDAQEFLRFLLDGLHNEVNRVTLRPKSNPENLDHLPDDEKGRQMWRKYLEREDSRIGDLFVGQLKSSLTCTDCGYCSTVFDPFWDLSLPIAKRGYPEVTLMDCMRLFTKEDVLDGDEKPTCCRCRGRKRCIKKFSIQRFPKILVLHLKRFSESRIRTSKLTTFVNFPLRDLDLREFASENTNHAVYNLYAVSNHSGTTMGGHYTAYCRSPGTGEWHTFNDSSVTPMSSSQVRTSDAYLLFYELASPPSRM

[4] = molecular target: T3, Ubiquitin carboxyl-terminal hydrolase 8 (Homo sapiens) (UniProt P40818); experiment: Inhibition of human USP8 using ubiquitin rhodamine 110 as substrate at 10 to 50 uM by fluorometric assay; conditions: dose 10-50 µM
T3 sequence (whole entry): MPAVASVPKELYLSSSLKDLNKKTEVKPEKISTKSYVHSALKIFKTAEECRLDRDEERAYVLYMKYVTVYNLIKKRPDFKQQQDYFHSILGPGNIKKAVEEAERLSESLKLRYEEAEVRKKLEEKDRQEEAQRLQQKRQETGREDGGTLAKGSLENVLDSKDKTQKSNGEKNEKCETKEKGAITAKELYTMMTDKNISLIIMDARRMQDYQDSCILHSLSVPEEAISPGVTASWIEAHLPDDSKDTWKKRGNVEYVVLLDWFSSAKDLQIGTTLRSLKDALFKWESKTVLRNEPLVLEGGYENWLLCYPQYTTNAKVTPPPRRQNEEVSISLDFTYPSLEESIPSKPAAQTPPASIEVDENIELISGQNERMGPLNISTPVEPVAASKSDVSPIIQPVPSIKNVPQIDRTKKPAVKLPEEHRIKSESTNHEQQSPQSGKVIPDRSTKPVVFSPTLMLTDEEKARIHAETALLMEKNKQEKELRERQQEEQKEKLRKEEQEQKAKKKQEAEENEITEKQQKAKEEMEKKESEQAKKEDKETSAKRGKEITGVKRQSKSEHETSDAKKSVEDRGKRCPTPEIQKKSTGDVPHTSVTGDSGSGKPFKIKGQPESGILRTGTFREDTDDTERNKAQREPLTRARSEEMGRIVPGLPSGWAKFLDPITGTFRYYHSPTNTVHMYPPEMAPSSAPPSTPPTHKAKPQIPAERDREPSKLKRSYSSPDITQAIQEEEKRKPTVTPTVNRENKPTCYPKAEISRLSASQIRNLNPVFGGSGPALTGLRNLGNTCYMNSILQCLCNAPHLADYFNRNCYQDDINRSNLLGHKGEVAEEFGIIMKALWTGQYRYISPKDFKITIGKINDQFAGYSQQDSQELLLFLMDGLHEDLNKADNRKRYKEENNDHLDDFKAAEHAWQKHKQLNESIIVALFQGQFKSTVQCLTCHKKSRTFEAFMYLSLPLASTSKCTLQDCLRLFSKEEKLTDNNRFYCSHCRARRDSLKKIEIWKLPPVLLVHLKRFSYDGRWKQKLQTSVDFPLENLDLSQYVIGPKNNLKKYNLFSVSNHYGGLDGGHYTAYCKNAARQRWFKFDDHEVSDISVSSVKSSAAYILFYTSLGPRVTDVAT

[5] = test system: U2OS; experiment: Antiproliferative activity against human U2OS cells assessed as reduction in cell viability up to 30 uM incubated for 72 hrs by CellTiter-Glo luminescent assay; format: functional, cell-based

Ubiquitin carboxyl-terminal hydrolase 9X (Homo sapiens), sequence (Q93008 whole entry, the tested form may be a part): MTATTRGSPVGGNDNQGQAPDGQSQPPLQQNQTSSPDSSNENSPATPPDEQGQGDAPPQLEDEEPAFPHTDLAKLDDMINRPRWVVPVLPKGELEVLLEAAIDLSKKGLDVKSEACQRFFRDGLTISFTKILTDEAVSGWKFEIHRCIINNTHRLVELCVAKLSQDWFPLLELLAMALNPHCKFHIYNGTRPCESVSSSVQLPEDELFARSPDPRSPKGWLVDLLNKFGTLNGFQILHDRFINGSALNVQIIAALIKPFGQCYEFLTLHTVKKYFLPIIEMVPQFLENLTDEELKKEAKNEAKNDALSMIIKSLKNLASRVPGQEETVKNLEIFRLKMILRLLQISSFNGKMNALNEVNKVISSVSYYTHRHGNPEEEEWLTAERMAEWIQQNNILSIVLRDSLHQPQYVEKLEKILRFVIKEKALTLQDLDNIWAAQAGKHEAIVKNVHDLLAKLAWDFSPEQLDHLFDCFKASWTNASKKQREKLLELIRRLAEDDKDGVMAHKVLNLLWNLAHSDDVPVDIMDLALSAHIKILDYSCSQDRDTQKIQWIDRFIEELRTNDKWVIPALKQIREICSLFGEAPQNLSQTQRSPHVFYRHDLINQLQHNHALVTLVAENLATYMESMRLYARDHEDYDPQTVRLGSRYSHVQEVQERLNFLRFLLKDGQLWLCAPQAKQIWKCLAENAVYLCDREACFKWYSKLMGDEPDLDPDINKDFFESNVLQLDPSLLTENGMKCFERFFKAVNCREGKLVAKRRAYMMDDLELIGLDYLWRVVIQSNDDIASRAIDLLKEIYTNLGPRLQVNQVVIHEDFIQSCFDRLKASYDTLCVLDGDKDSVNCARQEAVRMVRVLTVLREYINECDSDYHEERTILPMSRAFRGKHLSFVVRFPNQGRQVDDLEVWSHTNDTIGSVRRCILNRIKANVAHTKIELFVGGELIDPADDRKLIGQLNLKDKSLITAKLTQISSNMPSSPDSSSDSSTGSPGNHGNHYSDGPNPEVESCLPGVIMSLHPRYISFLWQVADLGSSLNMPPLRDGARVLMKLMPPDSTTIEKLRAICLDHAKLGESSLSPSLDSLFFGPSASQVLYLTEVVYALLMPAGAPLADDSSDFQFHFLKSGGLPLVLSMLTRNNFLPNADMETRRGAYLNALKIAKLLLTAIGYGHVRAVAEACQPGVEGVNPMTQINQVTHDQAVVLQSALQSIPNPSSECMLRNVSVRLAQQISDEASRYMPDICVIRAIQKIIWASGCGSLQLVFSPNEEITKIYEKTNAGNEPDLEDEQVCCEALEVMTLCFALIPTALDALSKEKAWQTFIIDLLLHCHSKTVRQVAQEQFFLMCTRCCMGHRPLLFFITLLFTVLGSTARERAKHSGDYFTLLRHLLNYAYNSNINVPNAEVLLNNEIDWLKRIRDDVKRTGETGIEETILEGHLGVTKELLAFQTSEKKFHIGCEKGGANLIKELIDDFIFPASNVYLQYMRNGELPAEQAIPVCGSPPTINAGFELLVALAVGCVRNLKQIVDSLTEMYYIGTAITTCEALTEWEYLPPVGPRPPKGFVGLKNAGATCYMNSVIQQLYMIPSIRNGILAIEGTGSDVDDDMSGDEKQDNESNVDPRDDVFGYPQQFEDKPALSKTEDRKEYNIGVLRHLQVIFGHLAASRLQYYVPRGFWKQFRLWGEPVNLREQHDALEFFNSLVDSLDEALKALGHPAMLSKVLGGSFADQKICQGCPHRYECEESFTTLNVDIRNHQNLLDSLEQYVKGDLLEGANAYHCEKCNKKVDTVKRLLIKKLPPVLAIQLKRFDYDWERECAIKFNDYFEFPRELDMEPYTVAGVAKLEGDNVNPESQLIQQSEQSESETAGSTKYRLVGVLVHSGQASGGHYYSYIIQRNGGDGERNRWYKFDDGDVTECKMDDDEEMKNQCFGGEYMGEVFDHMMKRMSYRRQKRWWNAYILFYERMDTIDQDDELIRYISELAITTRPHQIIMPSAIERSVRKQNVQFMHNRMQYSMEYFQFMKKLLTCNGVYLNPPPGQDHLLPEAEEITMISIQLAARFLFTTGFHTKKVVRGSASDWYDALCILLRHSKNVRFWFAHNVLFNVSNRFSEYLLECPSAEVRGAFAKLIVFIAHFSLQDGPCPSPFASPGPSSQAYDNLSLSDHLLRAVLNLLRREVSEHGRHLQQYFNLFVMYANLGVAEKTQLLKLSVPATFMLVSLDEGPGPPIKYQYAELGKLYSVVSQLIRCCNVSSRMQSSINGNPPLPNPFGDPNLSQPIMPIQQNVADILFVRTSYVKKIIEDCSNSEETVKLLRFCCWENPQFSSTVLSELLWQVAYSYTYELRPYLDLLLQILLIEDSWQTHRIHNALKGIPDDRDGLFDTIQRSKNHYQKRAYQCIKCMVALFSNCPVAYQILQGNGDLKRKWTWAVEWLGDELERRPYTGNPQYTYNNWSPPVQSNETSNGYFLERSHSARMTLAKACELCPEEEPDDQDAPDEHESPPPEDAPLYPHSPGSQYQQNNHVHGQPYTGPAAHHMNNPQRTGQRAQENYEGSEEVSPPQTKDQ

Row | SMILES | Activity [1] [%] | Activity [2] [%] | inhibition [3] | inhibition [4] | Activity [5]
1 | CC(NC(=O)C1CCCC1)C(=O)Nc1nnc(Cc2ccc([N+](=O)[O-])cc2)s1 (racemic) | < 50 | < 50 |  |  | 
2 | CC(C)C[C@H](NC(=O)C1(C(F)(F)F)CCCCC1)C(=O)Nc1nnc(Cc2ccc(C#N)cc2)s1 |  |  | inactive | inactive | inactive
